These results are taken from PubChem BioAssay (NCI).

Some test systems named below: TK-10 renal; SW-620 colon; M14 melanoma; SK-MEL-28 melanoma; RXF 393 renal; UACC-62 melanoma; HOP-92 NSCLC; OVCAR-4 ovarian; HCT-15 colon; PC-3 prostate.
Holding throughout (assay): NCI tumour cell line growth inhibition, 48 h

Molecules are shown by their SMILES.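 Dose response: 5 concentrations. Exposure: 48 h. Format: 96-well plates. Endpoint: linear interpolation; highest concentration if not reached. GI50 = concentration required for 50% inhibition of growth. The concentration for full growth arrest is given as TGI.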 Where a SMILES comes first, the peptide text is derived from it. [ ]: non-standard residue; d: D form. 2Nal = N[CH](Cc1ccc2ccccc2c1)C(=O)O Where only a bound is given, the exact number is not on record here.

In the case of `C=C1C(=O)OC2C1C(OC(=O)/C(C)=C\C)CC1(CO1)C1C(O)C=C(C)C21O` (stereo not given), the TGI stood at 9.35 µM in the experiment with TK-10 renal; 3.34 µM in the experiment with SW-620 colon; 7.58 µM in the experiment on M14 melanoma; 13.2 µM in the experiment on SK-MEL-28 melanoma; 7.09 µM with RXF 393 renal; 5.81 µM with UACC-62 melanoma. Further, the TGI amounted to 31.3 µM in the experiment with HOP-92 NSCLC, 20.7 µM in the experiment on OVCAR-4 ovarian and 11 µM in the experiment on HCT-15 colon.

For `CC(=O)O/N=C(Cl)/C(Cl)=N/OC(C)=O`, the TGI in the experiment on TK-10 renal, with SW-620 colon, in the experiment with M14 melanoma, in the experiment with SK-MEL-28 melanoma, in the experiment on RXF 393 renal and in the experiment with UACC-62 melanoma was above 100 µM throughout. The TGI with HOP-92 NSCLC, in the experiment with OVCAR-4 ovarian and with HCT-15 colon was above 100 µM in each case.

For `CN(C)CCC1(C2=CCCC2)CC/C(=C\c2ccccc2Cl)C1=O` (stereo not given), the TGI stood at 33.5 µM with TK-10 renal; 25.2 µM in the experiment with SW-620 colon; 26.8 µM with M14 melanoma; 26.2 µM in the experiment with SK-MEL-28 melanoma; 17.5 µM in the experiment on RXF 393 renal; 29.8 µM in the experiment on UACC-62 melanoma. For the same molecule, the TGI is 26.3 µM with HOP-92 NSCLC, 25.8 µM in the experiment on OVCAR-4 ovarian and 19.4 µM in the experiment with HCT-15 colon.

`O=C(O)CCSC(=O)Nc1ccccc1Cl`: the TGI in the experiment with TK-10 renal, with SW-620 colon, with M14 melanoma, in the experiment with SK-MEL-28 melanoma, with RXF 393 renal and in the experiment on UACC-62 melanoma was above 100 µM throughout. The TGI in the experiment on HOP-92 NSCLC, with OVCAR-4 ovarian and in the experiment with HCT-15 colon was above 100 µM in each case.

As for `OC1CCC[C@@H]1Sc1ccccc1` (stereo not given in full), the TGI in the experiment with TK-10 renal, in the experiment on SW-620 colon, in the experiment on M14 melanoma, with SK-MEL-28 melanoma, in the experiment with RXF 393 renal and in the experiment on UACC-62 melanoma was above 100 µM throughout. Moreover, the TGI in the experiment with HOP-92 NSCLC, in the experiment on OVCAR-4 ovarian and in the experiment on HCT-15 colon was above 100 µM each time.

Take `O=C(NNC(=S)Nc1ccccc1)c1ccccn1`: the GI50 with SW-620 colon is 4.54 µM; in the experiment with M14 melanoma, 2.1 µM; in the experiment on SK-MEL-28 melanoma, 2.8 µM; with PC-3 prostate, 2.87 µM; with OVCAR-4 ovarian it was 1.46 µM; in the experiment with HCT-15 colon, 1.13 µM. Besides, the TGI was above 100 µM in the experiment with SW-620 colon; 12.3 µM in the experiment with M14 melanoma; above 100 µM with SK-MEL-28 melanoma; above 100 µM in the experiment on PC-3 prostate; above 100 µM in the experiment on OVCAR-4 ovarian; above 100 µM in the experiment with HCT-15 colon.

As to `C/C(CCn1[nH]c(=O)ccc1=O)=N\Nc1ccc([N+](=O)[O-])cc1[N+](=O)[O-]`, the TGI in the experiment with TK-10 renal, with SW-620 colon, with M14 melanoma, with SK-MEL-28 melanoma, in the experiment on RXF 393 renal and with UACC-62 melanoma was above 100 µM throughout. Besides, the TGI in the experiment on HOP-92 NSCLC, in the experiment on OVCAR-4 ovarian and with HCT-15 colon was above 100 µM throughout.

Regarding `COC(=O)C(C(=O)C(=O)Nc1ccc(OC)cc1[N+](=O)[O-])c1nc2cc(C)c(C)cc2[nH]c1=O` (stereo not given), the TGI in the experiment with TK-10 renal, in the experiment with SW-620 colon, in the experiment with M14 melanoma, with SK-MEL-28 melanoma, in the experiment with RXF 393 renal and in the experiment on UACC-62 melanoma was above 100 µM in each case. Also, the TGI with HOP-92 NSCLC, in the experiment on OVCAR-4 ovarian and in the experiment with HCT-15 colon was above 100 µM throughout.

Take `C#CCN(N=O)C(=O)NCCCC(NC(C)=O)C(=O)NCc1ccccc1` (stereo not given): the TGI in the experiment with TK-10 renal, in the experiment on SW-620 colon, in the experiment with M14 melanoma, in the experiment with SK-MEL-28 melanoma, with RXF 393 renal and in the experiment on UACC-62 melanoma was above 100 µM throughout. The TGI in the experiment on HOP-92 NSCLC, in the experiment on OVCAR-4 ovarian and in the experiment on HCT-15 colon was above 100 µM each time.

Take `Cc1nc(Nc2ccccc2)sc1C(=O)CC(=O)C(=O)NC12CC3CC(CC(C3)C1)C2`: the TGI in the experiment with TK-10 renal, in the experiment with SW-620 colon, with M14 melanoma, in the experiment with SK-MEL-28 melanoma, in the experiment on RXF 393 renal and in the experiment on UACC-62 melanoma was above 100 µM in each case. The figures for the TGI with HOP-92 NSCLC, with OVCAR-4 ovarian and in the experiment on HCT-15 colon were 89.4 µM, above 100 µM and above 100 µM, respectively.

Turning to `COC(=O)C(=O)C(C(=O)C=C(C)C)C(=O)C(=O)Nc1nc2ccc([N+](=O)[O-])cc2s1` (stereo not given), the TGI with TK-10 renal was above 100 µM; with SW-620 colon it was above 100 µM; in the experiment on M14 melanoma it was above 100 µM; with SK-MEL-28 melanoma it was above 100 µM; with RXF 393 renal it was 45.2 µM; with UACC-62 melanoma, above 100 µM. Also, the TGI with HOP-92 NSCLC was 74.2 µM; in the experiment with OVCAR-4 ovarian it was above 100 µM; in the experiment on HCT-15 colon, above 100 µM.

In the case of `CC(C)C(NC(=O)C(CCCCN)NC(=O)C(Cc1c[nH]c2ccccc12)NC(=O)C(Cc1ccc(O)cc1)NC(=O)C(CS)NC(=O)C(N)Cc1ccc2ccccc2c1)C(=O)NC(CS)C(=O)NC(C(N)=O)C(C)O` (stereo not given) (H-[2Nal]CYWKVCT-NH2; configuration not given here), the GI50 in the experiment with SW-620 colon, in the experiment on M14 melanoma, in the experiment with RXF 393 renal, in the experiment on UACC-62 melanoma, in the experiment with OVCAR-4 ovarian and in the experiment with HCT-15 colon was above 100 µM in each case. For the same molecule, the TGI in the experiment with SW-620 colon is above 100 µM; with M14 melanoma, above 100 µM; in the experiment with SK-MEL-28 melanoma it was above 100 µM; in the experiment with RXF 393 renal, above 100 µM; in the experiment with UACC-62 melanoma it was above 100 µM; with PC-3 prostate, above 12.5 µM. In addition, the TGI in the experiment on OVCAR-4 ovarian and with HCT-15 colon was above 100 µM in each case.

For `NNC(=O)N/N=C1\C(=O)N(c2nccs2)C(=O)C(=O)C1c1nc2ccccc2s1` (stereo not given), the TGI in the experiment on TK-10 renal, with SW-620 colon, in the experiment with M14 melanoma, in the experiment with SK-MEL-28 melanoma, in the experiment on RXF 393 renal and in the experiment with UACC-62 melanoma was above 100 µM each time. The TGI with HOP-92 NSCLC, with OVCAR-4 ovarian and with HCT-15 colon was above 100 µM in each case.

With `COc1cc2c(cc1OC)c1c(OC)c(OC)cc3c1c1c2sc(=S)n1CC3`, the TGI is above 100 µM in the experiment with TK-10 renal; above 100 µM in the experiment with SW-620 colon; 35.1 µM with M14 melanoma; above 100 µM in the experiment on SK-MEL-28 melanoma; above 100 µM in the experiment on RXF 393 renal; 59.1 µM in the experiment with UACC-62 melanoma. Moreover, the TGI in the experiment on HOP-92 NSCLC, in the experiment with OVCAR-4 ovarian and in the experiment on HCT-15 colon was above 100 µM throughout.

Regarding `O=C(O)CCSC(=S)Nc1cccc(F)c1`, the TGI is above 100 µM in the experiment on TK-10 renal; above 100 µM in the experiment with SW-620 colon; above 100 µM in the experiment with M14 melanoma; 83.1 µM in the experiment with SK-MEL-28 melanoma; 99.2 µM in the experiment on RXF 393 renal; 29.5 µM with UACC-62 melanoma. The TGI with HOP-92 NSCLC is 98.9 µM; in the experiment on OVCAR-4 ovarian, above 100 µM; in the experiment with HCT-15 colon, above 100 µM.

For the molecule `Nc1ccc2c(c1)Oc1c(F)c(F)cc3c(=O)c(C(=O)O)cn-2c13`, the TGI in the experiment on TK-10 renal, with SW-620 colon, with M14 melanoma, in the experiment with SK-MEL-28 melanoma, with RXF 393 renal and with UACC-62 melanoma was above 100 µM each time. Further, the figures for the TGI with HOP-92 NSCLC, with OVCAR-4 ovarian and with HCT-15 colon were 96.9 µM, above 100 µM and above 100 µM, respectively.

Turning to `COc1ccc2c(c1)N(CCO)C1=C(C(=O)OC1)C2c1ccccc1` (stereo not given), the GI50 in the experiment on TK-10 renal was 2.11 µM; in the experiment with SW-620 colon, 1.64 µM; with M14 melanoma, 1.4 µM; in the experiment with SK-MEL-28 melanoma, 2.98 µM; in the experiment on UACC-62 melanoma, 1.72 µM; with PC-3 prostate, 1.75 µM. Further, the GI50 in the experiment with OVCAR-4 ovarian was 3.69 µM; with HCT-15 colon, 1.94 µM. For the same molecule, the TGI with TK-10 renal was above 50 µM; in the experiment with SW-620 colon, above 50 µM; in the experiment on M14 melanoma, 4.65 µM; in the experiment with SK-MEL-28 melanoma it was above 50 µM; in the experiment with UACC-62 melanoma, above 50 µM; with PC-3 prostate, above 50 µM. The TGI with OVCAR-4 ovarian and with HCT-15 colon was above 50 µM each time.

For `CCOC(=O)C1SC(=Nc2ccc(Cl)cc2C)N=C1C` (stereo not given), the TGI with TK-10 renal was found to be 65.2 µM; with SW-620 colon it was 53.7 µM; in the experiment with M14 melanoma, 35.3 µM; with SK-MEL-28 melanoma, 73.5 µM; with RXF 393 renal, 35.8 µM; with UACC-62 melanoma it was 27.9 µM. For the same molecule, the TGI with HOP-92 NSCLC worked out at 30 µM; in the experiment on OVCAR-4 ovarian it was 56.2 µM; in the experiment on HCT-15 colon, 37.1 µM.

Consider `CC1=C2[C@H](c3ccccc3)C3C=CC2(c2ccccc23)N(C(=O)C(c2ccccc2)c2ccccc2)C1=O` (stereo not given in full), for which the TGI in the experiment on TK-10 renal, in the experiment on SW-620 colon, in the experiment on M14 melanoma, with SK-MEL-28 melanoma, with RXF 393 renal and with UACC-62 melanoma was above 100 µM in each case. Besides, the TGI in the experiment on HOP-92 NSCLC, in the experiment with OVCAR-4 ovarian and in the experiment with HCT-15 colon was above 100 µM throughout.

As to `CCCCCCCCCCCCCC(=O)OCC1OC(n2cc(F)c(=O)[nH]c2=O)C(N)C(OC(=O)CCCCCCCCCCCCC)C1O` (stereo not given), the TGI in the experiment on TK-10 renal, in the experiment with SW-620 colon, in the experiment on M14 melanoma, in the experiment with SK-MEL-28 melanoma, in the experiment on RXF 393 renal and in the experiment on UACC-62 melanoma was above 100 µM in each case. In addition, the TGI in the experiment on HOP-92 NSCLC, with OVCAR-4 ovarian and in the experiment with HCT-15 colon was above 100 µM throughout.
